What all share (format): functional
Test [1] addresses T1, Glutamate NMDA receptor (Rattus norvegicus) (UniProt P35439+Q00959+Q00960+Q00961+Q62645+Q8VHN2+Q9R1M7). The test can be described thus: Antagonistic activity against 10 uM of N-methyl-D-aspartate glutamate receptor at the concentration of 100 uM. Further details: scale not given: the % may be the effect or the level left.
Test [2] addresses T1, Glutamate NMDA receptor (Rattus norvegicus). The test can be described thus: Depression of depolarizing response vs 10 uM N-methyl-D-aspartate glutamate receptor at the concentration of 500 uM; inactive.
In test [3] the target is T2, Glutamate receptor ionotropic, kainate (Rattus norvegicus) (UniProt P22756+Q01812+P42260+P42264+Q63273). The test can be described thus: Antagonistic activity against Ionotropic glutamate receptor kainate at the concentration of 100 uM. Further details: scale not given: the % may be the effect or the level left.
In test [4] the target is T3, Glutamate receptor ionotropic, AMPA (Rattus norvegicus) (UniProt P19491+P19492+P19493+P19490). The test can be described thus: Antagonistic activity against 5 uM of quis/AMPA at the concentration of 100 uM. Further details: scale not given: the % may be the effect or the level left.
The target of test [5] is T1, Glutamate NMDA receptor (Rattus norvegicus). The test can be described thus: Antagonistic activity against 10 uM of N-methyl-D-aspartate glutamate receptor at the concentration of 200 uM. Further details: scale not given: the % may be the effect or the level left.
Test [6] deals with T3, Glutamate receptor ionotropic, AMPA (Rattus norvegicus). The test can be described thus: Antagonistic activity against 5 uM of quis/AMPA at the concentration of 200 uM; ns = not significant.
The target in test [7] is T1, Glutamate NMDA receptor (Rattus norvegicus). The test can be described thus: Depression of depolarizing response vs 10 uM N-methyl-D-aspartate glutamate receptor at the concentration of 200 uM; inactive.
Test [8] concerns the target T2, Glutamate receptor ionotropic, kainate (Rattus norvegicus). The test can be described thus: Antagonistic activity against Ionotropic glutamate receptor kainate at the concentration of 200 uM; ns = not significant.
The target in test [9] is T1, Glutamate NMDA receptor (Rattus norvegicus). The test can be described thus: Depression of depolarizing response vs 10 uM N-methyl-D-aspartate glutamate receptor at the concentration of 500 uM.
The target of test [10] is T2, Glutamate receptor ionotropic, kainate (Rattus norvegicus). The test can be described thus: Antagonistic activity against Ionotropic glutamate receptor kainate at the concentration of 200 uM. Further details: scale not given: the % may be the effect or the level left.
Test [11] deals with T3, Glutamate receptor ionotropic, AMPA (Rattus norvegicus). The test can be described thus: Antagonistic activity against 5 uM of quis/AMPA at the concentration of 200 uM. Further details: scale not given: the % may be the effect or the level left.
The target is the same in test [12]. The test can be described thus: Antagonistic activity against 5 uM of quis/AMPA at the concentration of 500 uM; ns = not significant.
In test [13] the target is T1, Glutamate NMDA receptor (Rattus norvegicus). The test can be described thus: Antagonistic activity against 10 uM of N-methyl-D-aspartate glutamate receptor at the concentration of 500 uM; ns = not significant.
Test [14] addresses T2, Glutamate receptor ionotropic, kainate (Rattus norvegicus). The test can be described thus: Antagonistic activity against Ionotropic glutamate receptor kainate at the concentration of 500 uM; ns = not significant.
In test [15] the target is T1, Glutamate NMDA receptor (Rattus norvegicus). The test can be described thus: Antagonistic activity against 10 uM of N-methyl-D-aspartate glutamate receptor at the concentration of 500 uM. Further details: scale not given: the % may be the effect or the level left.

Calls of active or inactive are those of the source. No cut-off for these calls is given here.

As for `NC1(C(=O)O)CC(=CP(=O)(O)O)C1` (configuration not stated), the Activity in [1] came to 40%; in test [3] it was 25%; in [4], 30%. The outcome in [2] was inactive.
`N[C@]1(C(=O)O)C[C@@H](CP(=O)(O)O)C1` gave an Activity in test [5] of 40%. The outcome in [6], in test [7] and in test [8] was inactive.
For the compound `N[C@]1(C(=O)O)C[C@@H](CC(=O)O)C1`, the Activity amounted to 0.25 in [9] and 50% in test [5].
For `N[C@]1(C(=O)O)C[C@@H](CP(=O)(O)O)C1.N[C@]1(C(=O)O)C[C@H](CP(=O)(O)O)C1`, the Activity in test [10] is 25%; in test [5], 40%; in test [11], 25%. The result in test [2] was inactive.
For the compound `N[C@]1(C(=O)O)C[C@H](CC(=O)O)C1`, the outcome in [12], in test [13] and in [14] was inactive. Further, the Activity in test [9] is 0.65.
The compound `N[C@]1(C(=O)O)C[C@@H](CCCP(=O)(O)O)C1.N[C@]1(C(=O)O)C[C@H](CCCP(=O)(O)O)C1` came in with an Activity in test [15] of 50%. The result in [12], in [2] and in test [14] was inactive.

The values are drawn from ChEMBL document CHEMBL1125121, “Synthesis and activity of a potent N-methyl-D-aspartic acid agonist, trans-1-aminocyclobutane-1,3-dicarboxylic acid, and related phosphonic and carboxylic acids” (J Med Chem, 1990).
